Like-named read-outs stand apart in the source and are kept apart here.
What was measured:
[1] = test system: M. abscessus (ATCC Smooth strain); test: M. abscessus (ATCC Smooth strain) resazurin growth inhibition assay; format: cell-based, Mycobacterium abscessus; conditions: for IC50 / IC90: Mycobacteroides abscessus; for activity against M. abscessus (in words): summary of table results
[2] = test system: M. tuberculosis (H37RV strain); test: M. tuberculosis (H37RV strain) resazurin growth inhibition assay; format: cell-based, Mycobacterium tuberculosis; conditions: for IC50 / IC90: Mycobacterium tuberculosis; for activity against M. tuberculosis (in words): summary of table results
[3] = M. abscessus ATCC Smooth, 96 well plate, 37° C. 4 days, resazurin, read after 1 day, read-out: IC50
[4] = M. abscessus ATCC Smooth, 96 well plate, 37° C. 4 days, resazurin, read after 1 day, read-out: IC90
[5] = M. tuberculosis H37RV, 96 well plate, 37° C. 4 days, resazurin, read 3 days later, read-out: IC50
[6] = M. tuberculosis H37RV, 96 well plate, 37° C. 4 days, resazurin, read 3 days later, read-out: IC90

Compound | IC50 [1, 3] [µM] | IC90 [1, 4] [µM] | IC50 [2, 5] [µM] | IC90 [2, 6] [µM] | activity against M. tuberculosis compared to kanamycin (in words) ([2]; comparison with control kanamycin) | activity against M. tuberculosis (in words) [2] | activity against M. abscessus (in words) [1] | IC50 ([2]; H37RV) [µM] | IC90 ([2]; H37RV) [µM] | IC50 [1] [µM] | IC90 [1] [µM]
NCC[C@H](O)C(=O)N[C@@H]1C[C@H](N)[C@@H](O[C@H]2O[C@H](CN)[C@@H](O)[C@H](O)[C@H]2O)[C@H](O)[C@H]1O[C@H]1O[C@H](CO)[C@@H](O)[C@H](N)[C@H]1O [Amikacin] | 4.78 | 7.15 | – | – | – | – | – | – | – | – | –
NC[C@H]1O[C@H](O[C@H]2[C@H](O)[C@@H](O[C@H]3O[C@H](CO)[C@@H](O)[C@H](N)[C@H]3O)[C@H](N)C[C@@H]2N)[C@H](O)[C@@H](O)[C@@H]1O [Kanamycin] | 12.1 | 16.1 | 1.06 | 4.22 | – | – | – | – | – | – | –
O=C(Nc1ccc([N+](=O)[O-])cc1Cl)c1cc(Cl)ccc1O [Niclosamide, niclosamide] | 32.2 | 59.1 | 1.92 | 2.95 | superior overall to kanamycin | significant activity | significant activity | – | – | – | –
O=C(Nc1ccc(Br)cc1)c1cc(Br)cc(Br)c1O [Tribromsalan, 3,5,4′-tribromosalicylanilide] | – | – | – | – | – | significant activity | significant activity | 67.2 | 76.9 | 99.8 | 147

— patent US20260091043A1, “COMPOSITIONS AND METHODS FOR TREATING MYCOBACTERIUM INFECTIONS” (DATA2DISCOVERY, INC., priority 2022, published 2026)
